# Test results reported in ChEMBL document CHEMBL2069199, “Development of isoform selective PI3-kinase inhibitors as pharmacological tools for elucidating the PI3K pathway” (Bioorg Med Chem Lett, 2012).
# pIC50, pKi: −log10 of the molar value.
# Legend:
# [1] = molecular target: T1, Phosphatidylinositol 4,5-bisphosphate 3-kinase catalytic subunit alpha isoform (Homo sapiens, UniProt P42336); test: Inhibition of recombinant GST-tagged PI3K p110alpha using [32P]ATP after 60 mins by scintillation proximity assay
# T1 sequence (P42336 whole entry, canonical isoform): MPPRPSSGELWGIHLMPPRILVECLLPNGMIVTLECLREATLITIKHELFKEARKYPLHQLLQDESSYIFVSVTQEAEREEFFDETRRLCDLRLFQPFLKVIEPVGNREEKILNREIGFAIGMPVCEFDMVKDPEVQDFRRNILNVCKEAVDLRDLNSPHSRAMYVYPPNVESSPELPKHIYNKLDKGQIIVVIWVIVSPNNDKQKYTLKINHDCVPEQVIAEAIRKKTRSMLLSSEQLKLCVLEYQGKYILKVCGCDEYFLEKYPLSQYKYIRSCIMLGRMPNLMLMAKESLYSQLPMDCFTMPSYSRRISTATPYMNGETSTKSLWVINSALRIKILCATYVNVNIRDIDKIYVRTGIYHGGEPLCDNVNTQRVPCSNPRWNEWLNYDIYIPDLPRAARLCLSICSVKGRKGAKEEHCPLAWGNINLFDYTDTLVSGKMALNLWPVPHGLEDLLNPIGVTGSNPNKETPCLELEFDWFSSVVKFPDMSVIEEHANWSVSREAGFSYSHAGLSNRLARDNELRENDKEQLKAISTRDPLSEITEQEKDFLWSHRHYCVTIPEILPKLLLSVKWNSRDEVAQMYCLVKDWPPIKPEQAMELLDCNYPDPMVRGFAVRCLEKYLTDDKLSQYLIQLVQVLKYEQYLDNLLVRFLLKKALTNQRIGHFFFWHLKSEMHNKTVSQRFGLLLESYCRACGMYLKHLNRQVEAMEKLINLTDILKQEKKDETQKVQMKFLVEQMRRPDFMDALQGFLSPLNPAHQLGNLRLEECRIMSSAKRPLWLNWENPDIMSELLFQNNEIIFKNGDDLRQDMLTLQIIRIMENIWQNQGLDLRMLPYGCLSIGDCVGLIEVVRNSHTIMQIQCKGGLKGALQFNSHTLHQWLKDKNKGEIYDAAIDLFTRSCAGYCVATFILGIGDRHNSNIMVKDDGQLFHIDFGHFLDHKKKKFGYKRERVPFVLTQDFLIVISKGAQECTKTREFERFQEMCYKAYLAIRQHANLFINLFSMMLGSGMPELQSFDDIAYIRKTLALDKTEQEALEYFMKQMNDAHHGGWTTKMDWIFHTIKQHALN
# [2] = molecular target: T2, Phosphatidylinositol 4,5-bisphosphate 3-kinase catalytic subunit delta isoform (Homo sapiens, UniProt O00329); test: Inhibition of recombinant GST-tagged PI3K p110delta using [32P]ATP after 60 mins by scintillation proximity assay
# T2 sequence (O00329 whole entry): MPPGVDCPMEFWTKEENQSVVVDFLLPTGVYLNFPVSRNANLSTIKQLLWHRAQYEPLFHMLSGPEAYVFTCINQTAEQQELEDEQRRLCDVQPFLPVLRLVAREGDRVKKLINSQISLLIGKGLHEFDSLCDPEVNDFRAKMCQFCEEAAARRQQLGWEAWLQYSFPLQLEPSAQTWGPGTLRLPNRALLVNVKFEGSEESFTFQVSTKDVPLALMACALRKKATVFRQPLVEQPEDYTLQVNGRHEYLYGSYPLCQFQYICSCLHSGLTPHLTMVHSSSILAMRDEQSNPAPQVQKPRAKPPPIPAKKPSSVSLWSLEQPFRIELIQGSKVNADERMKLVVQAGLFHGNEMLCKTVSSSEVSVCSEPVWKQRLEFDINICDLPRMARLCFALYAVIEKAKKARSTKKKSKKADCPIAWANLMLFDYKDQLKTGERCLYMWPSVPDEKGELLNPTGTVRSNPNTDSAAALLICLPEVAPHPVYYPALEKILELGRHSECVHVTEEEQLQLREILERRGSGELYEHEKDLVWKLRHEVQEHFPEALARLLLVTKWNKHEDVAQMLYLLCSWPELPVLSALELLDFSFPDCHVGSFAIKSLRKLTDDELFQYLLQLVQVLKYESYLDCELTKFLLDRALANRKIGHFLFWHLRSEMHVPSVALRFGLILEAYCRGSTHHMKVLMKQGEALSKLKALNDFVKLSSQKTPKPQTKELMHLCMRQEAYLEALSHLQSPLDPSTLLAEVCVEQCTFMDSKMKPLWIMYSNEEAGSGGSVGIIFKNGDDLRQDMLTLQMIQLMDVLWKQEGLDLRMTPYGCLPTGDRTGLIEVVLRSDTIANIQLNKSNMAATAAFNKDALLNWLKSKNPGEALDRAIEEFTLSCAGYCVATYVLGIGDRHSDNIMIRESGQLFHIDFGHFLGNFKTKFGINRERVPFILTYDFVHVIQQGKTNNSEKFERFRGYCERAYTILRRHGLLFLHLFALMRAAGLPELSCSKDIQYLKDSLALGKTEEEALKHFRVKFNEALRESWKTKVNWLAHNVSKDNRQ
# [3] = molecular target: T3, Phosphatidylinositol 4,5-bisphosphate 3-kinase catalytic subunit beta isoform (Homo sapiens, UniProt P42338); test: Inhibition of recombinant GST-tagged PI3K p110beta using [32P]ATP after 60 mins by scintillation proximity assay
# T3 sequence (P42338 whole entry, canonical isoform): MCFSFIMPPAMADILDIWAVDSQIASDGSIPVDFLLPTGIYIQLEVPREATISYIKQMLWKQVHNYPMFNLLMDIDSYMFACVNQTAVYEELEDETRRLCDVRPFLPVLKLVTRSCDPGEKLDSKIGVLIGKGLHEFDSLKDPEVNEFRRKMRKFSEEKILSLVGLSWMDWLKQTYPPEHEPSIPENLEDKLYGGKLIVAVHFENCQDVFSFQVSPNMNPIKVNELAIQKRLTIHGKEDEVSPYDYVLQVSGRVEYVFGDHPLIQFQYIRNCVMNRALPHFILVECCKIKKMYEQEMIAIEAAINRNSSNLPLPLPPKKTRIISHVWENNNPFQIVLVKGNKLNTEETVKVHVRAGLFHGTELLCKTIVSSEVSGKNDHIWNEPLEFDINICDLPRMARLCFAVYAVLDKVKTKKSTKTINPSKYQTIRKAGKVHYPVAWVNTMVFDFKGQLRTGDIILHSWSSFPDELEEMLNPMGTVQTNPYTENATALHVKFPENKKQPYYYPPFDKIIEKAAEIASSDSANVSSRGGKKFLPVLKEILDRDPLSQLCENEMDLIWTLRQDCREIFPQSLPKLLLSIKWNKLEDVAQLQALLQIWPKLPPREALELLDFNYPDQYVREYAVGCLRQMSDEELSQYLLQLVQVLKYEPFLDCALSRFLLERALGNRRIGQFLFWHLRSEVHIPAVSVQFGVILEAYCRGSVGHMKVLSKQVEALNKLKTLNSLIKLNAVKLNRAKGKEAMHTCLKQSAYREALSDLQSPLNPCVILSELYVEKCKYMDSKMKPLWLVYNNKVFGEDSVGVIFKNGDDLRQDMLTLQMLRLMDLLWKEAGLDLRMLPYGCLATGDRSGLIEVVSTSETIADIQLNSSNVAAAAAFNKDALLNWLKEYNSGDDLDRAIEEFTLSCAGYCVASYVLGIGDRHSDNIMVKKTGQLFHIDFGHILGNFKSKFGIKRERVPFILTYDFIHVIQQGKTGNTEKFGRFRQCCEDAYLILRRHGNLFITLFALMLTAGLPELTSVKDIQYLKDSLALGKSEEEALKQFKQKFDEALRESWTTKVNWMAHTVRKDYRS
# [4] = Antiinflammatory activity in human neutrophils assessed as inhibition of fMLP-induced oxidative burst; format: functional, cell-based; conditions: neutrophil
# [5] = Antiinflammatory activity in mouse B cells assessed as inhibition of mitogen-induced proliferation; format: functional, cell-based
# [6] = Antiinflammatory activity in human B cells assessed as inhibition of mitogen-induced proliferation; format: functional, cell-based; conditions: B-cell
# [7] = molecular target: Serine/threonine-protein kinase mTOR (Homo sapiens, UniProt P42345); test: Inhibition of mTOR
# [8] = molecular target: DNA-dependent protein kinase catalytic subunit (Homo sapiens, UniProt P78527); test: Inhibition of DNA-PK
# [9] = molecular target: Phosphatidylinositol 3-kinase catalytic subunit type 3 (Homo sapiens, UniProt Q8NEB9); test: Inhibition of Vps34
# Sequence of Phosphatidylinositol 3-kinase catalytic subunit type 3 (Q8NEB9 whole entry): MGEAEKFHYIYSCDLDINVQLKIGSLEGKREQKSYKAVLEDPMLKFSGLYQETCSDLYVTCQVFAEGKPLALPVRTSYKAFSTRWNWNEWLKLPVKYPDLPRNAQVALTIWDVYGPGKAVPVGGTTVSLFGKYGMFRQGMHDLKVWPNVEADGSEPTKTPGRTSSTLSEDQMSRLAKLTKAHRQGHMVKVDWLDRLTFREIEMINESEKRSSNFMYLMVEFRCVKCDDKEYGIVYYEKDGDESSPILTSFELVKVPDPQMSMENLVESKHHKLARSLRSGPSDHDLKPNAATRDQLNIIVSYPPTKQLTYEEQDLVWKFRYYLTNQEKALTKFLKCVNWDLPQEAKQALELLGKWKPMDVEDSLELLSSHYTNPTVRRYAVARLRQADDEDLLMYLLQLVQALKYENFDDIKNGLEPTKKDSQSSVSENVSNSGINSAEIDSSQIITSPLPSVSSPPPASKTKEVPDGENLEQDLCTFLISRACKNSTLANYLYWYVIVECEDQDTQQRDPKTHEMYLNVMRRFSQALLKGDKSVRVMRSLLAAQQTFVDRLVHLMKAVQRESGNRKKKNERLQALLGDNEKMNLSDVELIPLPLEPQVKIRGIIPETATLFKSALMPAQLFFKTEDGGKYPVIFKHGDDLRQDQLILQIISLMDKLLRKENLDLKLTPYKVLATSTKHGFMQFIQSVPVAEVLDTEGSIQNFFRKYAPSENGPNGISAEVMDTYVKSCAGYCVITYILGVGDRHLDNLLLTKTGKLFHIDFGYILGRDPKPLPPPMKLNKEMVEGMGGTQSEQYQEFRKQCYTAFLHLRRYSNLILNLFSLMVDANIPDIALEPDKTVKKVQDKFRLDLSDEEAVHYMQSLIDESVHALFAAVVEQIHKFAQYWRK
# [10] = molecular target: Phosphatidylinositol 4-kinase beta (Homo sapiens, UniProt Q9UBF8); test: Inhibition of PI4Kbeta
# Sequence of Phosphatidylinositol 4-kinase beta (Q9UBF8 whole entry): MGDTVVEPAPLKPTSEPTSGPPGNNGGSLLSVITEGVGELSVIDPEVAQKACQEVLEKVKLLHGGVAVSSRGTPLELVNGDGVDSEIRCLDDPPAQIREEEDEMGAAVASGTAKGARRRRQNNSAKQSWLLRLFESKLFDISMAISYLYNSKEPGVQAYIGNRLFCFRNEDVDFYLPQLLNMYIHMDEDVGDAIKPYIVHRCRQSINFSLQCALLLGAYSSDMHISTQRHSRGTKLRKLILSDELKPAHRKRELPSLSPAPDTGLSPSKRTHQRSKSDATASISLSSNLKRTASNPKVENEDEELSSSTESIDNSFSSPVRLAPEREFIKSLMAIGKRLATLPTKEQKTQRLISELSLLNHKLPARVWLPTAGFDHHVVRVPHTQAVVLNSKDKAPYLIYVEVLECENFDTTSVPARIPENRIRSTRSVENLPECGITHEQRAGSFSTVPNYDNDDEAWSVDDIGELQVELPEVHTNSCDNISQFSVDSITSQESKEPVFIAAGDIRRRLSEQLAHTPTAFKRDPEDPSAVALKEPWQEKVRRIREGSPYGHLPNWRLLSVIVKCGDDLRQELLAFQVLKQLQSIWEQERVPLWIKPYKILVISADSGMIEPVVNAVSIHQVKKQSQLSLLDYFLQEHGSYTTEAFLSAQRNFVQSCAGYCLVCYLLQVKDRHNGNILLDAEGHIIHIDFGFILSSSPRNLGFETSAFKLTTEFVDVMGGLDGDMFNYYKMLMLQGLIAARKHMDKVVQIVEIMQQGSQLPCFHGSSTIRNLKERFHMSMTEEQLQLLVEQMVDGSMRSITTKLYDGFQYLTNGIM
# [11] = Tmax in Wistar rat at 10 mg/kg, po; format: ADME, organism-based; parameters: dose 10 mg/kg, route oral; conditions: in vivo
# [12] = Cmax in Wistar rat at 10 mg/kg, po; format: ADME, organism-based; parameters: dose 10 mg/kg, route oral; conditions: in vivo
# Rattus norvegicus [13] = test: (§1) AUC in Wistar rat at 10 mg/kg, po; format: ADME, organism-based, Plasma; parameters: dose 10 mg/kg, route oral; conditions: in vivo
# [14] = Oral bioavailability in Wistar rat at 10 mg/kg; format: ADME, organism-based; conditions: in vivo
# [15] = Half life in Wistar rat at 10 mg/kg, po; format: ADME, organism-based; parameters: dose 10 mg/kg, route oral; conditions: in vivo
# Rattus norvegicus [16] = test: Volume of distribution at steady state in Wistar rat at 10 mg/kg, po; format: ADME, organism-based; parameters: dose 10 mg/kg, route oral; conditions: in vivo
# [17] = Aqueous solubility of the compound at pH 6.8; format: physicochemical
# [18] = molecular target: T4, Phosphatidylinositol 4,5-bisphosphate 3-kinase catalytic subunit gamma isoform (Homo sapiens, UniProt P48736)
# T4 sequence (P48736 whole entry, canonical isoform): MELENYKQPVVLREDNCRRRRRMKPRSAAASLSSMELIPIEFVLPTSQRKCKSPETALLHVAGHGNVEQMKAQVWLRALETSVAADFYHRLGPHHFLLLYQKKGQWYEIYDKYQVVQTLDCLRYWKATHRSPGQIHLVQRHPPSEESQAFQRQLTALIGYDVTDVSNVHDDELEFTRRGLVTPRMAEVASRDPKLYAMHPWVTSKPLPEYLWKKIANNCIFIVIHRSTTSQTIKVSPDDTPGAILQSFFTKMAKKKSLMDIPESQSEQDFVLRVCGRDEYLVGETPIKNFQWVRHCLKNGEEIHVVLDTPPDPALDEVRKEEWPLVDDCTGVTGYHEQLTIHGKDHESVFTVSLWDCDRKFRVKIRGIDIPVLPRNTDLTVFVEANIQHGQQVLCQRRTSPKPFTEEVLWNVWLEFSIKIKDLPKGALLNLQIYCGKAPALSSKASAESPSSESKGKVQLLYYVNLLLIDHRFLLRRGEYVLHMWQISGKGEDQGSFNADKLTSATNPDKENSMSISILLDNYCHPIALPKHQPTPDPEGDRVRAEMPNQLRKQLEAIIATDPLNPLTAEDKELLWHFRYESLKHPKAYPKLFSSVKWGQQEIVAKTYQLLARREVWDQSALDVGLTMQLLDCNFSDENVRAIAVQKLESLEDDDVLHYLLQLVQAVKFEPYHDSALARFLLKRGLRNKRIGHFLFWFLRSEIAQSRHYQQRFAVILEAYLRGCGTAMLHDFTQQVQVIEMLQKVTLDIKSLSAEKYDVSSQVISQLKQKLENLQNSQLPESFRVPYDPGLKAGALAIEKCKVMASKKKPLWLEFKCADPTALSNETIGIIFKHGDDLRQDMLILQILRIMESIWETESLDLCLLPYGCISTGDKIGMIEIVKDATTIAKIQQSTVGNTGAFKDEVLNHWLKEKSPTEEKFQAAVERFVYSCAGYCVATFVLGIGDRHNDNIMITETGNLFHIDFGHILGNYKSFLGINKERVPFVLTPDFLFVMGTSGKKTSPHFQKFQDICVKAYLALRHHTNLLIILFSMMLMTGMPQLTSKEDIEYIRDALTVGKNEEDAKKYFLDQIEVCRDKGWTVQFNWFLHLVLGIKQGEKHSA
# Description: Inhibition of recombinant GST-tagged PI3K p110gamma using [32P]ATP after 60 mins by scintillation proximity assay
# [19] = as §1; format: ADME, organism-based, Plasma; parameters: dose 10 mg/kg, route oral; conditions: Wistar, plasma
# [20] = Clearance in Wistar rat at 10 mg/kg, po; format: ADME, organism-based; parameters: dose 10 mg/kg, route oral; conditions: in vivo
# [21] = molecular target: T4, Phosphatidylinositol 4,5-bisphosphate 3-kinase catalytic subunit gamma isoform; test: Inhibition of recombinant GST-tagged PI3K p110gamma by KinaseGlo assay
# [22] = molecular target: T1, Phosphatidylinositol 4,5-bisphosphate 3-kinase catalytic subunit alpha isoform; test: Inhibition of recombinant GST-tagged PI3K p110alpha by KinaseGlo assay
# [23] = molecular target: T2, Phosphatidylinositol 4,5-bisphosphate 3-kinase catalytic subunit delta isoform; test: Inhibition of recombinant GST-tagged PI3K p110delta by KinaseGlo assay
# [24] = molecular target: T3, Phosphatidylinositol 4,5-bisphosphate 3-kinase catalytic subunit beta isoform; test: Inhibition of recombinant GST-tagged PI3K p110beta by KinaseGlo assay
# [25] = molecular target: Dual specificity protein kinase CLK1 (Homo sapiens, UniProt P49759); test: Inhibition of CLK1
# [26] = molecular target: Dual specificity protein kinase CLK2 (Homo sapiens, UniProt P49760); test: Inhibition of CLK2
# [27] = Tmax in Wistar rat at 5 mg/kg, po; format: ADME, organism-based; parameters: dose 5 mg/kg, route oral; conditions: in vivo
# [28] = Cmax in Wistar rat at 5 mg/kg, po; format: ADME, organism-based; parameters: dose 5 mg/kg, route oral; conditions: in vivo
# [29] = AUC in Wistar rat at 5 mg/kg, po; format: ADME, organism-based; parameters: dose 5 mg/kg, route oral; conditions: plasma
# [30] = Oral bioavailability in Wistar rat at 5 mg/kg; format: ADME, organism-based; conditions: in vivo
# [31] = Clearance in Wistar rat at 5 mg/kg, po; format: ADME, organism-based; parameters: dose 5 mg/kg, route oral; conditions: in vivo
# [32] = Half life in Wistar rat at 5 mg/kg, po; format: ADME, organism-based; parameters: dose 5 mg/kg, route oral; conditions: in vivo
# Rattus norvegicus [33] = test: Volume of distribution at steady state in Wistar rat at 5 mg/kg, po; format: ADME, organism-based; parameters: dose 5 mg/kg, route oral; conditions: in vivo
Compound,pKi [1],pKi [2],pKi [3],pIC50 [4],pKi [18],other results
Cc1cc(NC(=O)CCNC(=O)Nc2nc(C)c(-c3ccc(-n4cccn4)cc3)s2)no1,6.82,8.40,6.47,6.14,5.99,pIC50 [5]: 7.85; pIC50 [6]: 8.30; pIC50 [7]: < 5.04; pIC50 [8]: < 5.00; pIC50 [9]: < 5.04; pIC50 [10]: 7.40; Tmax [11]: 480 min; Cmax [12]: 50 nM; AUC (Rattus norvegicus [13]): 0.69 µM·h; bioavailability [14]: 3%; half-life [15]: 36 min; Vdss (Rattus norvegicus [16]): 0.4 L/kg; solubility [17]: < 2 µg/mL
CC(=O)c1ccc(-c2sc(NC(=O)NCCC(=O)NC(C)(C)C)nc2C)cc1,5.72,6.13,6.60,6.66,,pIC50 [5]: 6.12; pIC50 [6]: 5.94; pIC50 [7]: < 5.04; pIC50 [8]: < 5.00; pIC50 [9]: < 5.04; pIC50 [10]: 6.62; Tmax [11]: 30 min; Cmax [12]: 1720 nM; AUC [19]: 10.8 µM·h; bioavailability [14]: 57%; CL/F [20]: 23 mL/min/kg; half-life [15]: 48 min; Vdss (Rattus norvegicus [16]): 1.4 L/kg
CC(=O)Nc1nc(C)c(-c2ccc(S(N)(=O)=O)cc2)s1,6.96,6.68,5.84,5.59,6.96,
CC(=O)Nc1nc(C)c(-c2ccc(S(C)(=O)=O)cc2)s1,6.70,6.72,5.87,5.71,6.64,
CC(=O)Nc1nc(C)c(-c2ccc(S(C)(=O)=O)c(Cl)c2)s1,7.46,7.10,5.89,5.71,7.24,
CC(=O)Nc1nc(C)c(-c2ccc(S(C)(=O)=O)c(Br)c2)s1,7.96,7.21,6.26,6.47,7.49,
CC(=O)Nc1nc(C)c(-c2ccc(S(C)(=O)=O)c(F)c2)s1,,,,6.66,,
CC(=O)Nc1nc(C)c(-c2ccc(S(C)(=O)=O)c(C#N)c2)s1,7.35,7.10,6.12,6.52,7.21,
CC(=O)Nc1nc(C)c(-c2ccc(S(C)(=O)=O)c(C(F)(F)F)c2)s1,7.55,7.13,6.06,6.54,7.21,
CC(=O)Nc1nc(C)c(-c2ccc(-n3cccn3)cc2)s1,7.52,7.72,6.39,6.49,6.96,
CC(=O)Nc1nc(C)c(-c2ccc(C(C)=O)cc2)s1,6.72,6.59,5.71,5.75,6.59,
Cc1nc(NC(=O)N2CCC[C@H]2C(N)=O)sc1-c1ccc(S(C)(=O)=O)cc1,6.73,5.44,< 5.00,,5.24,
Cc1nc(NC(=O)N2CCC[C@H]2C(N)=O)sc1-c1ccc(S(C)(=O)=O)c(C(F)(F)F)c1,7.70,5.78,< 5.00,,5.94,
Cc1nc(NC(=O)N2CCC[C@H]2C(N)=O)sc1-c1ccc(-n2cccn2)cc1,8.30,6.66,5.70,6.03,6.28,pIC50 [5]: 6.43; pIC50 [6]: 6.49; pIC50 [7]: < 5.04; pIC50 [8]: < 5.00; pIC50 [9]: < 5.04; pIC50 [10]: 6.04; Tmax [11]: 240 min; Cmax [12]: 280 nM; AUC [19]: 4.1 µM·h; bioavailability [14]: 21%; CL/F [20]: 21 mL/min/kg; half-life [15]: 42 min; Vdss (Rattus norvegicus [16]): 1.29 L/kg
NC(=O)[C@@H]1CCCN1C(=O)Nc1nc2ccc(-c3cnc(N)c(C(F)(F)F)c3)cc2s1,,,,,,pIC50 [21]: 5.92; pIC50 [22]: 7.40; pIC50 [23]: 6.27; pIC50 [24]: 5.53
Cc1cc(NC(=O)CCNC(=O)Nc2nc(C)c(-c3ccc(S(C)(=O)=O)c(F)c3)s2)no1,6.96,8.52,6.07,,6.92,
Cc1nc(NC(=O)NCCC(=O)OC(C)(C)C)sc1-c1ccc(S(C)(=O)=O)c(F)c1,5.67,6.42,7.05,,7.70,
CCn1nnc(CCNC(=O)Nc2nc(C)c(-c3ccc(S(C)(=O)=O)c(F)c3)s2)n1,5.85,6.33,6.49,6.57,,pIC50 [5]: 6.23; pIC50 [6]: 5.79; pIC50 [7]: < 5.04; pIC50 [8]: < 5.00; pIC50 [9]: < 5.04; pIC50 [10]: 5.88; pIC50 [25]: 6.93; pIC50 [26]: 6.93; Tmax [27]: 60 min; Cmax [28]: 490 nM; AUC [29]: 4.31 µM·h; bioavailability [30]: 24%; CL/F [31]: 4 mL/min/kg; half-life [32]: 108 min; Vdss (Rattus norvegicus [33]): 0.6 L/kg
